From US20090042993A1, “IDENTIFICATION OF NOVEL POST-TRANSLATIONAL PROTEIN MODIFICATIONS” (priority 2007, published 2009)

Key:
BACE1 = assay: Pulse-chase half-life of BACE1; type: cell-based, human; settings: following ceramide treatment; ~16 hours without
Procedure: Confluent cells were starved for 1 hr in Met/Cys free medium, labeled with 100 μCi [^35S]-Met/Cys (Trans35S-Label, >1000 Ci/mmol; Pierce) in starvation medium/dish and chased for 8, 16, and 24 hours with DMEM supplemented with 5 mM cold Met/Cys. Cell extracts were pre-cleared with BioMag Protein A (Polysciences, Inc.). Beads were used at the concentration of 15 μl of the slurry per sample and separated with a magnetic holder. BACE1 was then immunoprecipitated with anti-BACE1 antibodies and recovered with BioMag Protein A as above. The immunoprecipitate-bead complexes were washed 3 times and boiled in sample buffer. Beads were then separated and the samples were analyzed by reducing SDS-PAGE (on a 4-12% Bis-Tris NuPAGE system) and autoradiography.
FIG. 3 illustrates how transient lysine acetylation controls both translocation along the secretory pathway and molecular stability of the nascent BACE1 protein. […] Immunoprecipitates were analyzed by SDS-PAGE and autoradiography. […] BACE1 was then immunoprecipitated as above and analyzed by reducing SDS-PAGE and autoradiography. Results are expressed as percentage of total newly-synthesized BACE1. […] BACE1 was immunoprecipitated from total cell lysates and analyzed by SDS-PAGE and autoradiography. The half-life of BACE1 from five different readings is shown in FIG. 3(C), whereas a representative radiogram is shown in FIG. 3(D). […]

[1] = system: acetyl-CoA:lysine acetyltransferase activity in ER vesicles; assay: Membrane acetyltransferase activity, in vitro acetylation of BACE1-myc by ER vesicles; type: biochemical, Chinese Hamster; settings: vesicles from control or ceramide-treated cells, 0.2% Triton X-100, 30° C.
From the text: Intact vesicles from the endoplasmic reticulum (ER) and the Golgi apparatus were purified on a 10-34% Iodixanol (OptiPrep; Axis-Shield, Norway) continuous gradient as described (Puglielli et al., 2001, Nat. Cell Biol. 3: 905-912). The complete migration of subcellular markers in a typical gradient is shown in Costantini et al., 2006, EMBO J. 25: 1997-2006; Puglielli et al., 2001, Nat. Cell Biol. 3: 905-912. Fractions enriched in ER and Golgi markers (also called ER or Golgi vesicles herein) were separated, pooled together, and resuspended in isotonic/cryogenic buffer (0.25 M sucrose and 10 mM Tris-HCl, pH 7.4) in the presence of protease inhibitors (Roche). Latency of ER and Golgi vesicles was determined with the glucose-6-phosphatase (Clairmont et al., 1992, J. Biol. Chem. 267: 3983-3900) and the sialyl-transferase (Puglielli and Hirschberg, 1999, J. Biol. Chem. 274: 35596-35600) methods, respectively. […]
The reaction was stopped by adding 200 μl of ice-cold buffer and immediate immersion in ice; BACE1 was then immunoprecipitated and counted on a liquid scintillation counter. […]
FIG. 6 illustrates how acetyltransferase and deacetylase activities exist in the lumen of ER and Golgi apparatus, respectively. […] The reaction was stopped by lowering the temperature; BACE1 was then purified again and analyzed on a scintillation liquid counter. […]

CCCCCCCCCCCCC/C=C/[C@@H](O)[C@H](CO)NC(=O)CCCCC [ceramide, C6-ceramide]
half-life of native BACE1 (BACE1): ~24 h | in vitro acetylation of BACE1 by ER membrane vesicles [1]: no apparent difference
